Data from US10517889B2, “Modulators of SMAD7 expression” (Ionis Pharmaceuticals, Inc., priority 2017, dated 2019).
Strand notation (5' to 3'): a small letter for the sugar, then the base; units joined by * are phosphorothioate-linked, units joined directly phosphodiester-linked; [ ] holds rarer units or linkages, { } end groups; capitals alone tell only the bases. k = constrained ethyl (cEt); [5mC] = 5-methylcytosine; d = 2'-deoxy (DNA)

System: human SMAD7 mRNA
Assay: Antisense inhibition of human SMAD7 mRNA expression in Hep3B cells by 3-10-3 cEt gapmers, 10,000 nM, electroporation (Example 2)
Format: cell-based
Settings: Hep3B cells, electroporation with 10,000 nM antisense oligonucleotide, approximately 24 hours
Outline: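 qRT-PCR (RTS5062) of SMAD7 mRNA, normalised to RIBOGREEN total RNA, gave percent inhibition relative to untreated controls. Hep3B cells at 20,000 per well received 10,000 nM oligonucleotide by electroporation, with ~24 h treatment.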

[1] = SMAD7 mRNA, primer probe set RTS5062, relative to untreated control cells
[2] = SMAD7 mRNA by RT-PCR (RTS5062), relative to untreated control cells

Substance | % Inhibition [1] [%] | % Inhibition [2] [%]
830002 (kT*kA*kG*d[5mC]*d[5mC]*d[5mC]*dA*dA*d[5mC]*dT*dG*dT*dT*kT*kG*kT; antisense) [compound 830002] | 43 | 
830003 (antisense kG*kG*k[5mC]*dA*dT*dT*d[5mC]*dT*dT*dT*dT*dA*dG*k[5mC]*k[5mC]*k[5mC]) [compound 830003] | 0 | 
830004 (antisense kT*kA*kA*dA*dG*dG*d[5mC]*d[5mC]*d[5mC]*dA*dG*d[5mC]*d[5mC]*kA*kT*kG) [compound 830004] | 24 | 
830005 (antisense k[5mC]*kT*k[5mC]*dA*d[5mC]*d[5mC]*dA*dG*dT*dT*dG*dG*dT*kT*kT*kG) [compound 830005] | 13 | 
830006 (antisense kA*k[5mC]*kT*d[5mC]*dA*d[5mC]*d[5mC]*dA*dG*dT*dT*dG*dG*kT*kT*kT) [compound 830006] | 0 | 
830007 (antisense k[5mC]*kT*kA*d[5mC]*dT*d[5mC]*dA*d[5mC]*d[5mC]*dA*dG*dT*dT*kG*kG*kT) [compound 830007] | 0 | 
830008 (antisense kT*kA*kG*dA*dG*dG*d[5mC]*dT*d[5mC]*dT*dA*dT*dT*kT*k[5mC]*kT) [compound 830008] | 0 | 
830009 (antisense kG*kT*kG*dT*dT*dA*dA*dA*dG*d[5mC]*dT*dG*dA*kG*k[5mC]*k[5mC]) [compound 830009] | 52 | 
830011 (antisense k[5mC]*k[5mC]*kA*dG*dT*d[5mC]*dT*d[5mC]*dA*dA*dA*dT*dG*kG*kG*k[5mC]) [compound 830011] | 25 | 
830012 (antisense kG*k[5mC]*k[5mC]*dA*dG*dT*d[5mC]*dT*d[5mC]*dA*dA*dA*dT*kG*kG*kG) [compound 830012] | 37 | 
830013 (antisense kG*kT*kG*d[5mC]*d[5mC]*dA*dG*dT*d[5mC]*dT*d[5mC]*dA*dA*kA*kT*kG) [compound 830013] | 55 | 
830014 (antisense kG*kG*kT*dG*d[5mC]*d[5mC]*dA*dG*dT*d[5mC]*dT*d[5mC]*dA*kA*kA*kT) [compound 830014] |  | 22
830015 (antisense kG*k[5mC]*kT*dG*dG*dT*dG*d[5mC]*d[5mC]*dA*dG*dT*d[5mC]*kT*k[5mC]*kA) [compound 830015] |  | 56
830016 (antisense kG*kG*kT*dG*d[5mC]*d[5mC]*d[5mC]*dA*dA*d[5mC]*d[5mC]*d[5mC]*dT*kT*k[5mC]*kA) [compound 830016] |  | 32
830017 (antisense kA*kG*kG*d[5mC]*dG*dG*dA*dA*dG*dG*dA*d[5mC]*dT*kT*kG*k[5mC]) [compound 830017] |  | 30
830018 (antisense k[5mC]*k[5mC]*k[5mC]*dA*dA*d[5mC]*dA*dG*d[5mC]*d[5mC]*dA*dA*dA*kA*k[5mC]*kG) [compound 830018] |  | 10
830019 (antisense kA*kG*kG*d[5mC]*d[5mC]*d[5mC]*dA*dA*d[5mC]*dA*dG*d[5mC]*d[5mC]*kA*kA*kA) [compound 830019] |  | 16
830020 (antisense kG*kA*kA*dA*dG*dG*d[5mC]*d[5mC]*d[5mC]*dA*dA*d[5mC]*dA*kG*k[5mC]*k[5mC]) [compound 830020] |  | 23
830021 (antisense kG*kG*kG*dA*dA*dA*dG*dG*d[5mC]*d[5mC]*d[5mC]*dA*dA*k[5mC]*kA*kG) [compound 830021] |  | 42
830022 (antisense kG*kG*k[5mC]*dT*dG*d[5mC]*dA*dG*dA*dG*dT*dA*dT*kG*kG*kG) [compound 830022] |  | 59
830023 (antisense kT*k[5mC]*kA*d[5mC]*dA*dT*dG*d[5mC]*dT*dT*dT*dG*d[5mC]*kG*kG*kG) [compound 830023] |  | 57
830024 (antisense kT*kG*kT*dA*dA*dA*dT*d[5mC]*dG*dA*dA*dA*dG*k[5mC]*kA*kA) [compound 830024] |  | 40
